According to PubChem BioAssay AID248 (DTP/NCI, 2004):
Toxic doses and inconclusive results are not listed. Cut-off read from the data, not from the text of the source: active = T/C of 150% or more; inactive = T/C below 125%.

System: L1210 leukemia ip in BDF1 mice, survival T/C
Experiment: NCI In Vivo Anticancer Drug Screen. Data for tumor model L1210 Leukemia (intraperitoneal) in B6D2F1 (BDF1) mice
Conditions: endpoint: mean survival time, higher = longer survival
In short: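 Each compound was tested against a transplantable tumor grown in mice. The endpoint was survival, with treated animals benchmarked against vehicle controls as a simple ratio.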

[1] = dose: 100.0 mg/kg/injection, schedule: Q04DX003 (ip), vehicle: Klucel (hydroxypropylcellulose) (HPC)
[2] = dose: 200.0 mg/kg/injection, schedule: Q04DX003 (ip), vehicle: Klucel (hydroxypropylcellulose) (HPC)
[3] = dose: 100.0 mg/kg/injection, schedule: Q01DX001 (ip), vehicle: saline
[4] = dose: 200.0 mg/kg/injection, schedule: Q01DX001 (ip), vehicle: saline
[5] = dose: 400.0 mg/kg/injection, schedule: Q01DX001 (ip), vehicle: saline
[6] = dose: 100.0 mg/kg/injection, schedule: Q04DX002 (ip), vehicle: Klucel (hydroxypropylcellulose) (HPC)
[7] = dose: 200.0 mg/kg/injection, schedule: Q04DX002 (ip), vehicle: Klucel (hydroxypropylcellulose) (HPC)
[8] = dose: 400.0 mg/kg/injection, schedule: Q04DX002 (ip), vehicle: Klucel (hydroxypropylcellulose) (HPC)
[9] = dose: 25.0 mg/kg/injection, schedule: Q01DX009 (ip), vehicle: saline
[10] = dose: 25.0 mg/kg/injection, schedule: Q04DX003 (ip), vehicle: saline
[11] = dose: 50.0 mg/kg/injection, schedule: Q04DX003 (ip), vehicle: saline
[12] = dose: 100.0 mg/kg/injection, schedule: Q01DX009 (ip), vehicle: saline
[13] = dose: 100.0 mg/kg/injection, schedule: Q04DX003 (ip), vehicle: saline
[14] = dose: 200.0 mg/kg/injection, schedule: Q01DX009 (ip), vehicle: saline
[15] = dose: 400.0 mg/kg/injection, schedule: Q01DX009 (ip), vehicle: saline
[16] = dose: 50.0 mg/kg/injection, schedule: Q01DX009 (ip), vehicle: saline with Tween-80
[17] = dose: 100.0 mg/kg/injection, schedule: Q01DX009 (ip), vehicle: saline with Tween-80
[18] = dose: 200.0 mg/kg/injection, schedule: Q01DX009 (ip), vehicle: saline with Tween-80
[19] = dose: 100.0 mg/kg/injection, schedule: Q01DX009 (ip), vehicle: Klucel (hydroxypropylcellulose) (HPC)
[20] = dose: 400.0 mg/kg/injection, schedule: Q04DX003 (ip), vehicle: Klucel (hydroxypropylcellulose) (HPC)

Measured: T/C

ClC12C3CCCC1CCCC2CCC3 (configuration not stated)
inactive: dose: 100.0 mg/kg/injection, schedule: Q04DX003 (ip), vehicle: other 117 % of control | dose: 200.0 mg/kg/injection, schedule: Q04DX003 (ip), vehicle: other 104 % of control | dose: 400.0 mg/kg/injection, schedule: Q04DX003 (ip), vehicle: other 104 % of control

CCOC(=O)c1cnc(SC)nc1C(=O)OCC
inactive: dose: 50.0 mg/kg/injection, schedule: Q04DX003 (ip), vehicle: Klucel (hydroxypropylcellulose) (HPC) 102 % of control | [1] 94 % of control | [2] 102 % of control

O=S(=O)(c1cc(Br)ccc1O)c1cc(Br)ccc1O
inactive: [3] 97 % of control | dose: 100.0 mg/kg/injection, schedule: Q04DX002 (ip), vehicle: gum acacia 93 % of control | [4] 95 % of control | dose: 200.0 mg/kg/injection, schedule: Q04DX002 (ip), vehicle: gum acacia 93 % of control | [5] 103 % of control | dose: 400.0 mg/kg/injection, schedule: Q04DX002 (ip), vehicle: gum acacia 93 % of control

CC(=O)OC1CCC2(C)C(=CCC3C2CCC2(C)C3CC3C(c4ccccc4)=NN(c4ccccc4)C32C#N)C1 (configuration not stated)
inactive: [6] 103 % of control | [7] 92 % of control | [8] 98 % of control

CCC1CC[N-]CC1.CCC1CC[N-]CC1.[Cl][Pt+2]([Cl])([Cl])[Cl]
inactive: dose: 6.25 mg/kg/injection, schedule: Q01DX009 (ip), vehicle: saline 103 % of control | dose: 12.5 mg/kg/injection, schedule: Q01DX009 (ip), vehicle: saline 110 % of control | dose: 12.5 mg/kg/injection, schedule: Q04DX003 (ip), vehicle: saline 97 % of control | [9] 86 % of control | [10] 95 % of control | [11] 104 % of control

CNc1cccc2c1C(=O)c1ccccc1C2=O
inactive: [6] 96 % of control | [7] 92 % of control | [8] 96 % of control

Nc1cc(C(=O)Nc2cccc(C3=NCCN3)c2)ccc1C(=O)Nc1cccc(C2=NCCN2)c1
inactive: dose: 7.5 mg/kg/injection, schedule: Q01DX Z (ip), vehicle: saline 113 % of control | dose: 10.0 mg/kg/injection, schedule: Q01DX Z (ip), vehicle: saline 110 % of control

CCN(CC)C(=O)C1CN2CCc3cc(OC)c(OC)cc3C2CC1O (configuration not stated)
inactive: [9] 97 % of control | [10] 108 % of control | dose: 50.0 mg/kg/injection, schedule: Q01DX009 (ip), vehicle: saline 105 % of control | [11] 105 % of control | [12] 103 % of control | [13] 97 % of control | [14] 118 % of control | dose: 200.0 mg/kg/injection, schedule: Q04DX003 (ip), vehicle: saline 110 % of control | [15] 115 % of control | dose: 400.0 mg/kg/injection, schedule: Q04DX003 (ip), vehicle: saline 105 % of control

C=CC(=O)N1c2ccccc2N(C(=O)C=C)C(C)C1C (configuration not stated)
inactive: [3] 112 % of control | [4] 104 % of control | [5] 98 % of control

COC(=O)C1=CC(C(=O)OC)C(C(=O)OC)N2C=CSC2=C1 (configuration not stated)
inactive: [10] 93 % of control | [11] 100 % of control | [13] 96 % of control

CCOc1nc(SCC)ncc1C
inactive: dose: 100.0 mg/kg/injection, schedule: Q01DX009 (ip), vehicle: water 107 % of control | dose: 100.0 mg/kg/injection, schedule: Q04DX003 (ip), vehicle: water 101 % of control | dose: 200.0 mg/kg/injection, schedule: Q01DX009 (ip), vehicle: water 106 % of control | dose: 200.0 mg/kg/injection, schedule: Q04DX003 (ip), vehicle: water 95 % of control | dose: 400.0 mg/kg/injection, schedule: Q04DX003 (ip), vehicle: water 103 % of control

CSC(SC)=C(C#N)C#N
inactive: dose: 25.0 mg/kg/injection, schedule: Q04DX002 (ip), vehicle: saline 101 % of control

CCOC(=O)C(CC)c1nc2ccccc2o1 (configuration not stated)
inactive: [16] 109 % of control | [17] 100 % of control | [18] 95 % of control | dose: 400.0 mg/kg/injection, schedule: Q01DX009 (ip), vehicle: saline with Tween-80 94 % of control

CCCCCCCCCCCCNC(=O)OCCN(CCOC(=O)NCCCCCCCCCCCC)C(=O)COc1ccc(Cl)cc1
inactive: dose: 100.0 mg/kg/injection, schedule: Q01DX009 (ip), vehicle: other 92 % of control | dose: 200.0 mg/kg/injection, schedule: Q01DX009 (ip), vehicle: other 92 % of control | dose: 400.0 mg/kg/injection, schedule: Q01DX009 (ip), vehicle: other 96 % of control

Nc1ncnc2c1c(S(=O)(=O)O)cn2C1OC(CO)C(O)C1O (configuration not stated)
inactive: dose: 100.0 mg/kg/injection, schedule: Q01DX001 (ip), vehicle: Klucel (hydroxypropylcellulose) (HPC) 90 % of control | dose: 200.0 mg/kg/injection, schedule: Q01DX001 (ip), vehicle: Klucel (hydroxypropylcellulose) (HPC) 93 % of control | dose: 400.0 mg/kg/injection, schedule: Q01DX001 (ip), vehicle: Klucel (hydroxypropylcellulose) (HPC) 100 % of control

O=C(N/N=C\C=C\c1ccccc1)c1ccc(Cl)cc1
inactive: [16] 93 % of control | [17] 89 % of control | [18] 86 % of control

CS(=O)(=O)OCCCCCCCCCOS(C)(=O)=O
inactive: dose: 25.0 mg/kg/injection, schedule: Q01DX009 (ip), vehicle: Klucel (hydroxypropylcellulose) (HPC) 96 % of control | dose: 50.0 mg/kg/injection, schedule: Q01DX009 (ip), vehicle: Klucel (hydroxypropylcellulose) (HPC) 103 % of control | dose: 75.0 mg/kg/injection, schedule: Q01DX001 (ip), vehicle: other 95 % of control | [19] 105 % of control | dose: 150.0 mg/kg/injection, schedule: Q01DX001 (ip), vehicle: other 108 % of control

COc1c(C(C)(C)C)cc([N+](=O)[O-])c(C)c1[N+](=O)[O-]
inactive: [19] 98 % of control | [1] 103 % of control | dose: 200.0 mg/kg/injection, schedule: Q01DX009 (ip), vehicle: Klucel (hydroxypropylcellulose) (HPC) 103 % of control | [2] 102 % of control | dose: 400.0 mg/kg/injection, schedule: Q01DX009 (ip), vehicle: Klucel (hydroxypropylcellulose) (HPC) 96 % of control | [20] 94 % of control

CCOC(=O)C(CC)(OC(C)=O)C(=O)CBr (configuration not stated)
inactive: dose: 75.0 mg/kg/injection, schedule: Q01DX001 (ip), vehicle: acetone 87 % of control

CCC(=O)C(=O)Cc1cc[n+]([O-])c2ccccc12
inactive: [1] 102 % of control | [2] 97 % of control | [20] 113 % of control

CC(C)C1CCC(C)C(C(O)(C(F)(F)F)C(F)(F)F)C1=O (configuration not stated)
inactive: [12] 114 % of control | [14] 97 % of control | [15] 97 % of control

O=C(NCCCCCCCCCCNC(=O)C(Cl)Cl)C(Cl)Cl
inactive: [1] 98 % of control | [2] 90 % of control | [20] 105 % of control
